Data as given in US20210348171A1, “PHARMACOPROTEOMICS PLATFORM IDENTIFYING KINOME FEATURES REGULATING DRUG RESPONSE IN CANCER” (University of Washington, priority 2020, published 2021).

What was measured:
Format in all cases: cell-based, Human
SNU449 cells = assay: Inhibitor co-treatment growth inhibition (WZ4003 with AZD7762 or dinaciclib); conditions: for decrease of EC50 on cotreatment with WZ4003: cotreatment with NUAK1/2 inhibitor WZ4003, 72 h, n=4; for dose dependence of the cotreatment effect: AZD7762 plus WZ4003
Text: To identify combinatorial treatment strategies targeting mesenchymal and drug resistant HCC cells, the next step was to analyze drug sensitivity pathways that become activated upon AXL and NUAK1/2 inhibition and EMT reversal. […] It was also observed increased cell cycle activity among epithelial lines in the 17 HCC line panel (FIG. 9B), that was accompanied by elevated activity of kinases promoting DDR signaling and cell survival under conditions of replication stress. For instance, activation of CHEK1 and 2 along with increased phosphorylation of ATR, CHEK1/2 and WEE1 substrates were observed (FIGS. 4A and 9C). Similarly, AXL RNAi in FOCUS cells activated the DDR kinases CHEK1 and WEE1, increasing phosphorylation of their substrates CDK11B and CDK2 (FIGS. 4B and 9D). […] It was reasoned, therefore, that combinatorial inhibition of AXL or NUAK1/2, as well as cell cycle checkpoint kinases could efficiently kill mesenchymal HCC cells (FIG. 4D). To test this strategy, the mesenchymal and drug resistant SNU449 line was cotreated with the selective NUAK1/2 inhibitor WZ4003 (Banerjee, S., et al. (2014). Characterization of WZ4003 and HTH-01-015 as selective inhibitors of the LKB1-tumour-suppressor-activated NUAK kinases. Biochem J 457, 215-225, incorporated herein by reference in its entirety) and the CHEK1/2 inhibitor AZD7762. Additionally, the CDK inhibitor dinaciclib was used to test if elevated, EMT state-dependent, cell cycle activity translates into increased efficacy of such drugs. […] These encouraging results led to establishment of SNU449 NUAK1 or NUAK2 RNAi cells (FIG. 9E). Gratifyingly, treating SNU449 NUAK RNAi cells and WT controls with varying doses of AZD7762 and dinaciclib recapitulated the drug co-treatment results (˜3- to 4-fold decrease in EC50s, FIG. 4H). To consolidate these findings, the FOCUS NUAK and AXL RNAi cell lines were tested against AZD7762 and dinaciclib. As in SNU449 cells, NUAK1/2 RNAi FOCUS cells were sensitized to kinase inhibition up to ˜5-fold (FIG. 4I).
1800 cells/well were seeded onto white flat bottom half area 96-well plates (Greiner Bio-One, Kremsmuenster, AT) in 50 μl of growth medium and allowed to attach in an incubator for 24 h. Then the drugs in DMSO and/or DMSO vehicle controls as 11× solutions in growth medium were added to a total volume of 55 μl and 0.1% DMSO final. The cells were grown in an incubator for another 72 h. Then, 55 μl of CellTiter-Glo 2.0 (Promega, Madison, Wis.) reagent/well were added according to the manufacturer's instructions and luminescence was quantified with a SpectraMax 190 plate reader (Molecular Devices, San Jose, Calif.). The CHEK1/2 inhibitor AZD7762 (Selleckchem, Houston, Tex.) and the NUAK1/2 inhibitor WZ4003 (Tocris Bioscience, Minneapolis, Minn.) were applied at 8 different concentrations between 10 μM and 4.6 nM (3-fold dilution steps) and Dinaciclib (Selleckchem) was applied at 8 different concentrations between 1 μM and 0.5 nM (3-fold dilution steps). Experiments were performed in four biological replicates. Growth inhibition curves were fitted using the GraphPad Prism software package (V5.0a) with a least-squares nonlinear regression model for curve fitting (One site-Fit log IC50 function).

[1] = test system: FOCUS, SKHep1, SNU761 RNAi lines; assay: Drug synergy in AAK1, RALBP1, REPS1, REPS2 knockdown lines (Cell Titer Glo 2.0); conditions: RNAi lines vs scramble control, 72 hours
Text: (1) Kinases and their interaction partners are depleted from cell lines using either small hairpin RNAs (shRNAs) or CRISPR/Cas9 knockout. […] This assay aims to discover drug synergies that may be exploited to develop novel combination therapies.
The next step was to assess the ability of an AAK1 knockdown to sensitize the cells to extant KI targeting therapeutics.

[2] = test system: mesenchymal HCC cells with CAMK1D shRNAi knockdown; assay: Drug sensitization in CAMK1D knockdown lines (Cell Titer Glo 2.0); conditions: RNAi lines vs scramble control, 72 hours
Text: The approach to validate the role AAK1 is represented schematically in FIG. 10A. As illustrated, the general workflow pipeline is to test the biological function of kinases and their interaction partners function in EMT and cancer therapy resistance. (1) Kinases and their interaction partners are depleted from cell lines using either small hairpin RNAs (shRNAs) or CRISPR/Cas9 knockout. (2) Effects of RNAi knockdown (KD) or CRISPR knockout (KO) are quantified on cellular signaling pathways using unbiased MS-based kinome-centric and global proteome and phosphoproteome profiling. (3) KD/KO effects on EMT state are studied by quantifying 12 well-known EMT and stemness markers such as CDH1, VIM, SNAI2 and TWIST1 using qPCR and western blotting. (4) KD/KO effects are confirmed/determined on cancer therapy resistance by treating KD/KO cell lines with 15 clinical and pre-clinical HCC drugs, quantifying cell viability using the Promega Cell Titer Glo 2.0 assay. […] (5) KD/KO effects are measured on cell migration and invasion by conducting trans-well migration and wound scratch assays. […]
Further analyses of CAMK1D were conducted to further investigate its role in EMT and potential therapeutic target. […] Phosphoproteins were quantified using global MS-based phosphoproteomics according to our previously published protocol. […]

| decrease of EC50 on cotreatment with WZ4003 (SNU449 cells) [fold] | Structure (SMILES) | significance of the cotreatment effect at low WZ4003 (SNU449 cells; 1 μM of WZ4003 with AZD7762) | dose dependence of the cotreatment effect (SNU449 cells) | effect of knockdown of AAK1 and interaction partners on drug treatment [1] | effect of CAMK1D knockdown on drug treatment [2] |
| --- | --- | --- | --- | --- | --- |
| ~2 | CCc1cnn2c(NCc3ccc[n+]([O-])c3)cc(N3CCCC[C@H]3CCO)nc12 [dinaciclib, Dinaciclib] | – | – | – | – |
| – | CCC(=O)Nc1cccc(Oc2nc(Nc3ccc(N4CCN(C)CC4)cc3OC)ncc2Cl)c1 [WZ4003] | still significant | dose-dependent | – | – |
| – | O=c1[nH]c2ccc(Cl)cc2c(N[C@@H]2CN3CCC2CC3)c1-c1nc2ccccc2[nH]1 [CHIR-124] | – | – | sensitizes | sensitizes |
| ~3 | NC(=O)Nc1cc(-c2cccc(F)c2)sc1C(=O)N[C@H]1CCCNC1 [AZD7762] | – | dose-dependent | sensitizes | sensitizes |
